For experiment [1], the system named is wild type S. mutans (UA140). Kind of experiment: Fluorescence microscopy binding to S. mutans. Details: species or system Streptococcus mutans. The note with it: FAM-labeled peptide, result in words. Here is the method: (§1) Peptide samples were prepared at a concentration of 25 µM for screening. For bacterial and yeast binding assays, cells were grown overnight, washed, and immobilized in a polylysine-coated 96-well plate, except in the case of S. mutans biofilms, where 10^5 cells were inoculated into 400 µl of Todd Hewitt broth in 48-well plates and biofilms were grown anaerobically for 24 hr. FAM-labeled peptides were applied to immobilized cell, yeast, and bacterial cultures, incubated for 10 minutes and washed extensively to remove unbound peptide. Samples were visualized by fluorescence microscopy (Nikon E400). For each peptide, both brightfield and fluorescence images were collected with the manufacturer-supplied software (SPOT, Diagnostic Instruments, Sterling Heights, MI). Post-collection, the locations of cells and background regions were determined using the brightfield images; those regions were then selected in the fluorescence images for quantitation of pixel values for determination of relative fluorescence intensities using The GIMP (http://www.gimp.org), [33]. Due to the variation in the levels of binding of the peptide to the well, these values are represented as bacterial fluorescence/background fluorescence, in order to remove the effects of precipitation or nonspecific binding from the final measurement.

The next experiment relates to S. mutans gtfB mutant. Kind of experiment: Fluorescence microscopy binding to surface mutant. Details: species or system Streptococcus mutans. To be noted: FAM-labeled peptide, result in words. Here is the method:
as §1

In the next experiment the test system is S. aureus. Kind of experiment: Fluorescence microscopy screening of FAM-labeled peptides against immobilized cells. The class given is binding, Staphylococcus aureus. To be noted: FAM-labeled peptide 25 µM, 10 minutes, washed, result in words. Here is the method: as §1
For a further experiment, the system named is wild type M. xanthus. Described as above. The note with it: FAM-labeled peptide 25 µM, 10 minutes, result in words. It counts as binding, Myxococcus xanthus. Here is the method:
as §1

Experiment [2] in a line: Tooth section binding by confocal laser scanning microscopy. The note with it: sectioned human teeth, FAM-labeled peptide, CLSM; result in words. An excerpt:
For tooth binding assays, FAM-labeled pilot matrix peptides were collected into four pools of 9 peptides each. Peptides were screened by exposing pools to sections taken from a collection of anonymous human teeth (extracted during normal clinical practice), followed by visualization of the samples by Confocal Laser Scanning Microscopy (CLSM).

Entries after “also recorded” stand apart in the source; their conditions may differ.

For IWHSWISTW [sma24], the “Binding to wild type S. mutans” value in experiment [1] is “good binding activity and specificity; also recorded: strong binding”. The “Binding to S. mutans gtfB mutant unable to synthesize extracellular glucan” value in the experiment on S. mutans gtfB mutant is reported as “reduced binding”.
As to AMKDAMERM [Pilot Library E4], the “Binding to immobilized S. aureus cells (fluorescence staining)” value with S. aureus is on record as “preferentially binds”. For the same sequence, the “Binding to wild-type M. xanthus cells (fluorescence staining)” value in the experiment on wild type M. xanthus is “preferentially binds”. For the same sequence, in experiment [2], the “Binding to tooth dentin” value is on record as “no obvious binding”; the “Binding to tooth enamel and enamel-proximal region of the dentino-enamel junction” value is given as “clear binding”.
For AMQDAMNEM [Pilot Library E6], in experiment [2], the “Binding to tooth dentin” value is given as “bound selectively to dentin”.

The values above are taken from paper PMC3156232, “Rapid Probing of Biological Surfaces with a Sparse-Matrix Peptide Library” (PLoS ONE, 2011).
